Results on 26 compounds are retold here after ChEMBL document CHEMBL6114960, “Discovery of First-in-Class FXR and HSD17B13 Dual Modulator for the Treatment of Metabolic Dysfunction-Associated Fatty Liver Disease” (J Med Chem, 2025).

In assay [1] the target is T1, Bile acid receptor (Homo sapiens, UniProt Q96RI1).
T1 sequence (Q96RI1 whole entry): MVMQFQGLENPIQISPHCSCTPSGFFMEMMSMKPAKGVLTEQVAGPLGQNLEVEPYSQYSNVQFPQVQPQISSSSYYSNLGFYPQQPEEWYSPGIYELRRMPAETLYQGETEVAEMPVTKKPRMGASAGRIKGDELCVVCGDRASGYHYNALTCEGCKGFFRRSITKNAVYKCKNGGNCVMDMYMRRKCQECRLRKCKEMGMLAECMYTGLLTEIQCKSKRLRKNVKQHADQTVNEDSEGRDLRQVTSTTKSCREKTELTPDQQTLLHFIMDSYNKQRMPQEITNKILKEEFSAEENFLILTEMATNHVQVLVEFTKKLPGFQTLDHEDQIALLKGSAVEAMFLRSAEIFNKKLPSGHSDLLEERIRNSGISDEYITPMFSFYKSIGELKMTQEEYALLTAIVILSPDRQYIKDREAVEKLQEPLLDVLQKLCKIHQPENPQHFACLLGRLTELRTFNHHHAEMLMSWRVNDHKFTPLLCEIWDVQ
Briefly: Agonist activity at FXR-LBD (unknown origin) incubated for 3 hrs in presence of fluorescein-coactivator peptide by TR-FRET analysis. On the technique in general: In TR-FRET formats the signal depends on donor and acceptor labels being close together.

The target in assay [2] is T1, Bile acid receptor. Briefly: Agonist activity at FXR (unknown origin) transfected in human HepG2 cells incubated for 24 hrs by luciferase assay. Type of assay: cell-based.
Assay [3] has as its target T2, 17-beta-hydroxysteroid dehydrogenase 13 (Homo sapiens, UniProt Q7Z5P4).
T2 sequence (Q7Z5P4 whole entry): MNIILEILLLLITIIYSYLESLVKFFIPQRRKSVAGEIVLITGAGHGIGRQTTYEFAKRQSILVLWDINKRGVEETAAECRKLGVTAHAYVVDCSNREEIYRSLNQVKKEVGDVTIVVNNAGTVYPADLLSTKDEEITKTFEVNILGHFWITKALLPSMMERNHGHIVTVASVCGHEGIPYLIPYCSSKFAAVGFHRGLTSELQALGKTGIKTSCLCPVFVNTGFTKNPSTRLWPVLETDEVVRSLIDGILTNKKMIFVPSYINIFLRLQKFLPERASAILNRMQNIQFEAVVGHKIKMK
Description: Inhibition of HSD17B13 (unknown origin) using beta-estradiol and FAC-NAD+ as substrate incubated for 2 hrs by NAD(P)H-Glo detection reagent based luminescence assay

Assay [4] addresses T1, Bile acid receptor. Briefly: Agonist activity at FXR (unknown origin).
The test system of assay [5] is Mus musculus. Briefly: Anti-MASH activity in western diet and CCl4 co-induced male C57BL/6 mouse model assessed as NAFLD activity score at 20 mg/kg, po administered with high fat diet and sugar water for 12 weeks with subsequent CCl4 administration three times a week and measured after 4 weeks of compound administration via gavage starting from 9th week (Rvb > 6). Type of assay: functional.

Broadly, the EC50 is the midpoint of the concentration-response curve. As for `CC(C)NC(=O)c1ccc(-c2ccc(OCc3c(-c4c(Cl)cccc4Cl)noc3C3CC3)cc2)cc1`, the EC50 in assay [1] was 0.974 µM. In the case of `Cc1cc(OCc2c(-c3c(Cl)cccc3Cl)noc2C2CC2)ccc1-c1ccc(C(=O)O)cc1`, the EC50 in assay [2] was found to be 0.301 µM; in assay [1] it was 0.134 µM. As to `CN(C)C(=O)c1ccc(-c2ccc(OCc3c(-c4c(Cl)cccc4Cl)noc3C3CC3)cc2)cc1`, the EC50 in assay [1] worked out at 0.482 µM. As usually defined, the IC50 is the midpoint of a concentration-inhibition curve. `O=C(O)c1cccc2nc(-c3ccc(OCc4c(-c5c(Cl)cccc5Cl)noc4C4CC4)cc3)cn12` gave an IC50 in assay [3] of 0.85 µM. Also, the EC50 in assay [2] stood at 0.186 µM; in assay [1] it was 0.121 µM. For `O=C(O)c1ccc(-c2ccc(OCc3c(-c4c(Cl)cccc4Cl)noc3C3CC3)cc2)nc1`, the EC50 in assay [2] was 0.329 µM; in assay [1], 0.129 µM. Taken in the same sequence, the figures for `O=C(O)c1ccc(-c2ccc(OCc3c(-c4c(Cl)cccc4Cl)noc3C3CC3)c(F)c2)cc1` were 0.475 µM and 0.143 µM. In the case of `CN(C)C(=O)c1cccc(-c2ccc(OCc3c(-c4c(Cl)cccc4Cl)noc3C3CC3)cc2)c1`, the concentration for a half-maximal effect (EC50) was found to be 0.493 µM in assay [2] and 0.209 µM in assay [1]. In the case of `CC(C)c1onc(-c2ccccc2C(F)(F)F)c1COc1ccc(-c2ccc(C(=O)O)cc2)cc1`, the 50% effective concentration (EC50) in assay [2] was 0.525 µM; in assay [1], 0.232 µM.

For `O=C(O)c1ccc(-c2ccc(OCc3c(-c4c(Cl)cccc4Cl)noc3C3CC3)cc2)cc1Cl`, the EC50 in assay [2] worked out at 0.239 µM; in assay [1], 0.193 µM. As to `O=C(O)C1=CC2NC(c3ccc(OCc4c(-c5c(Cl)cccc5Cl)noc4C4CC4)cc3)=NC2C=C1` (stereo unspecified), in assay [3], half-maximal inhibition (IC50) was put at 4.35 µM. For the compound `O=C(NCC1CC1)c1cccc(-c2ccc(OCc3c(-c4c(Cl)cccc4Cl)noc3C3CC3)cc2)c1`, in assay [1], the EC50 is over 10 µM. As for `CC(C)(C)NC(=O)c1cccc(-c2ccc(OCc3c(-c4c(Cl)cccc4Cl)noc3C3CC3)cc2)c1`, in assay [1], the EC50 was over 10 µM. Consider `O=C(O)c1c(F)cc(-c2ccc(OCc3c(-c4c(Cl)cccc4Cl)noc3C3CC3)cc2)cc1F`, for which the concentration giving a half-maximal response (EC50) in assay [1] amounted to 0.531 µM. With `O=C(O)c1ccc(-c2ccc(OCc3c(-c4c(Cl)cccc4Cl)noc3C3CC3)cc2)c(C(F)(F)F)c1`, the EC50 was determined as 0.288 µM in assay [2] and 0.119 µM in assay [1]. Turning to `CNC(=O)c1ccc(-c2ccc(OCc3c(-c4c(Cl)cccc4Cl)noc3C3CC3)cc2)cc1`, the EC50 in assay [2] was found to be 0.288 µM; in assay [1], 0.146 µM.

For `O=C(O)c1ccc(-c2ccc(OCc3c(-c4c(Cl)cccc4Cl)noc3C3CC3)cc2)s1`, the figures for the EC50 in assay [2] and in assay [1] were 0.491 µM and 0.271 µM, respectively.

`OCC1(c2cccc(-c3ccc(OCc4c(-c5c(Cl)cccc5Cl)noc4C4CC4)cc3)c2)CC1`: in assay [1], the EC50 was over 10 µM. On to `O=C(O)c1ccc(-c2ccc(OCc3c(-c4c(Cl)cccc4Cl)noc3C3CC3)cc2)c(F)c1`, for which the concentration for a half-maximal effect (EC50) in assay [2] came out at 0.282 µM; in assay [1] it was 0.114 µM. With `NC(=O)c1ccc(-c2ccc(OCc3c(-c4c(Cl)cccc4Cl)noc3C3CC3)cc2)cc1`, the results for the EC50 in assay [2] and in assay [1] were 0.372 µM and 0.145 µM, respectively. Take `O=C(c1cccc(-c2ccc(OCc3c(-c4c(Cl)cccc4Cl)noc3C3CC3)cc2)c1)N1CCOCC1`: the concentration giving a half-maximal response (EC50) in assay [1] is over 10 µM.

As to `Cc1cc(OCc2c(-c3c(Cl)cccc3Cl)noc2C2CC2)cc(C)c1-c1ccc(C(=O)O)cc1`, the EC50 in assay [2] was determined as 0.261 µM; in assay [1], 0.085 µM. As for `O=C(O)c1ccc(-c2ccc(OCc3c(-c4c(Cl)cccc4Cl)noc3C3CC3)cn2)cc1`, the EC50 in assay [1] is 0.697 µM. As for `O=C(NC1CC1)c1cccc(-c2ccc(OCc3c(-c4c(Cl)cccc4Cl)noc3C3CC3)cc2)c1`, in assay [1], the EC50 came out at 0.579 µM. On to `OCCOc1ccc(-c2ccc(OCc3c(-c4c(Cl)cccc4Cl)noc3C3CC3)cc2)cc1`, for which, in assay [1], the EC50 is over 10 µM. Turning to `O=C(O)c1ccnc(N2CC(O)(c3ccc(OCc4c(-c5c(Cl)cccc5Cl)noc4C4CC4)cc3Cl)C2)c1` [CILOFEXOR], the EC50 in assay [4] came out at 0.058 µM. In turn, `CC[C@H]1[C@@H](O)[C@@H]2[C@H](CC[C@]3(C)[C@@H]([C@H](C)CCC(=O)O)CC[C@@H]23)[C@@]2(C)CC[C@@H](O)C[C@@H]12` [OBETICHOLIC ACID] came in with a concentration for half-maximal inhibition (IC50) in assay [3] of over 10 µM. Further, in assay [5], the Activity came out at 3.5.
